# Reference: US12070458B2, “Therapeutic agent composition and method of use, for treatment of mild congnitive impairment, depression, and psychological disorders” (priority 2018, dated 2024)
# Key:
# [1] = tested on: patients with major depressive disorder; test: Double-blind, randomized, placebo-controlled, active reference study in patients with major depressive disorder; assay type: in vivo, human; settings: for change from baseline in MADRS total score, Mean ± SD / MADRS total score, Difference to Placebo: week 6, venlafaxine 75 mg/d orally
# Excerpt: This randomized, double-blind, fixed-dose, placebo-controlled, active reference study recruited 32 randomized patients in accordance with the principles of Good Clinical Practice [ICH (1996). Harmonized Tripartite Guideline E6: Guideline for Good Clinical Practice (http://www.fda.gov/downloads/drugs/guidancecomplianceregulatoryinformation/gui dances/ucm073122.pdf)] and the Declaration of Helsinki [WMA (1964). Ethical Principles for Medical Research Involving Human Subjects (http://www.wma.net/en/30publications/10policies/b3/). World Medical Association.] Local ethics committees approved the study design and eligible patients gave their written informed consent before participating.
# Eligible patients were randomized equally (1:1:1:1) to one of the four treatment arms for a 6-week double-blind treatment period. Randomized patients were given 1-week wallet cards at each visit and were instructed to take two capsules per day, orally, at the same time every day (preferably in the morning). NA-831 was dosed at 20 mg/day or 40 mg/d for 6 week and venlafaxine at 75 mg/d over 6-week treatment period. Efficacy and tolerability were assessed at screening, baseline and after 1, 2, 3, 4, 5, and 6 week. Patients were contacted for a safety follow-up 4 week after the completion visit.
# Patients with MDD presenting with a current major depressive episode according to DSM-IV-TR criteria were included in the study if they were an outpatient of either sex, aged from 20 yr to 65 yr, (mean=39.7±8.5) (with a Montgomery—Åsberg Depression Rating Scale (MADRS) (Montgomery & Åsberg, 1979) total score ≥30 at the baseline visit. [Montgomery S Åsberg M (1979). A new depression scale designed to be sensitive to change. British Journal of Psychiatry 134 382-389.https://doi.org/10.1192/bjp.134.4.382]
# Patients were evaluated using the MADRS from baseline to week 6. Rater training was undertaken to increase inter-rater reliability, and was supervised by an experienced investigator. Only those investigators who had actively participated in rater training sessions prior to inclusion of patients into the study were allowed to rate patients. Patient ratings were assessed by the same investigator at each visit, whenever possible.
# All safety analyses were based on the all-patients-treated set (APT), comprising all randomized patients who took at least one dose of study medication. All efficacy analyses were based on a modified intent-to-treat set (ITT)—the full-analysis set (FAS), comprising all patients in the […] who had at least one valid post-baseline MADRS total score assessment.
# Four hypotheses were part of the primary efficacy analysis, which was fully adjusted for multiplicity using a hierarchical testing procedure at the 5% level of significance as long as the previous hypothesis was rejected. The order of testing was: no difference between the 20 mg dose vs. placebo at week 6, no difference between […] at week 6, no difference between 20 mg dose vs. placebo at week 1, and finally no difference between 40 mg dose vs. placebo at week 1. The statistical model was an analysis of covariance (ANCOVA) of the change from baseline in MADRS total score (FAS, LOCF) with treatment and site as fixed factors and the baseline MADRS score as a covariate. The primary efficacy analysis was repeated on observed cases (OC) data, using both an ANCOVA and a mixed model for repeated measurements (MMRM).
# All adverse effects (AEs) (including any change in concurrent illnesses or new illnesses) either observed by the investigator or reported spontaneously by the patient were recorded. AEs were coded using the lowest level term according to the Medical Dictionary for Regulatory Activities, version 10.0. As a post-hoc analysis, the safety database was searched at preferred-term and verbatim-term level for possible suicide-related AEs, as described by the FDA [Laughren (2006). Memorandum on Suicidality. (http://www.fda.gov/ohrms/dockets/ac/06/briefing/2006-4272b1-01-fda.pdf)].
# [2] = tested on: cerebellar microexplants (P4); test: Glutamate induced neuronal death in cerebellar microexplants (P4); assay type: cell-based, Wistar rats
# Procedure: Cerebellar Cell Culture Preparing and Coating of Cover Slips
# Ten coverslips were placed into a large petri dish and washed in 70% alcohol for 5 minutes, then washed with Millipore H2O. The coverslips were air dried, then coated with Poly-D-Lysine (1 mg/ml stock solution in PBS, 90-100 μl) and incubated for 2 hours at 34° C.
# Postnatal day 4 Wistar rats were used for the study. Rats were placed in ice for 1 minute, the heads were decapitated and the cerebellum removed on ice. Cerebellum tissue was placed in 1 ml of 0.65% glucose supplemented PBS (10 μl 65% stock D (+)glucose/1 ml PBS) in a large petri dish, chopped up into smaller sections and triturate with a 1 ml insulin syringe via a 23 G (0.4 mm) needle, and then squirted back into the glucose solution on the large petri dish. The tissue was sieved through (125 μm pore size gaze) and centrifuged (2 minutes at 60 g) two times for a medium exchange into serum-free BSA-supplemented START V medium (Biochrom). The second centrifugation step was done with 1 ml of START V medium. The microexplants were reconstituted into 500 μl of START V medium and put on ice.
# Cultivation and Fixation of Cerebellar Cells
# Two hours after PDL-coating, the slides were washed with Millipore H2O and air dried. Each slide was placed into a small 35 mm petri dish and 40 μl of START V/cell suspension added. The tissue was incubated for 2 hours at 34° C. (settlement period). START V-medium (1 ml) was then added to the petri dish and cultivated at 34° C./5% CO2/100% humidity for 48 hours. Cells were rinsed in PBS and then fixed for 2-3 minutes in increasing concentrations of paraformaldehyde (500 μl of 0.4% PFA was applied; then 1.2% PFA; then 3% PFA and finally 4% PFA—all fixation solutions contain 0.2% glutardialdehyde). Finally, the microexplants were rinsed in PBS.
# (§1) 10 μl of toxin (L-glutamate-100 mM in Millipore water) was applied simultaneously with cPG (from bachem, 10 mM stock prepared in PBS and diluted to final concentrations between 1-100 nM) for Study 1. A delay in administration of cPG at 6 hours after glutamate treatment was performed for Study 2.
# as §1, with “cyclic(tri(prolylglycyl)) (which was obtained from NeuroBiomed, San Jose, California),” for “cPG (from bachem,”, “cyclic(tri(prolylglycyl))” for “cPG”
# as §1, with “cyclic Glycyl-2-Methyl Proline (obtained NeuroBiomed, San Jose California),” for “cPG (from bachem,”
# [3] = tested on: 6-OHDA induced nigral-striatal lesion; test: 6-OHDA induced nigral-striatal lesion, apomorphine-induced contralateral rotations; assay type: in vivo, Wistar rats; settings: 1 mg (mg/kg) i.p. 2 hours post lesion; 7 days post-lesion, apomorphine 0.1 mg/kg; n=5; vehicle 290±18 or 292±21
# Procedure: Twenty male Wistar rats (280-310 g) were used. After exposing the skull, 6-OHDA (8 μg in a base of 2 μl 0.9% saline containing 1% ascorbic acid) was administered into the right medial forebrain bundle (MFB) using co-ordinates AP +4.7 mm, R 1.6 mmv −8 mm under 3% halothane anaesthesia. 6-OHDA was injected through a 25G needle connected via a polyethylene catheter to a 100 μl Hamilton syringe. The 6-OHDA was infused by a microdialysis infusion pump at a rate of 0.5 μl/min. The needle was left in the brain for a further 3 minutes before being slowly withdrawn. The skin was sutured with 2.0 silk and the rats were allowed to recover from anaesthesia. The rats were housed in a holding room with free access to food and water at all times except during behavioural testing.
# Cyclic PG was dissolved in saline. Four different doses of cPG (0, 0.1, 0.5, 1 mg/kg, Bachem) were administered intraperitoneally 2 hours post lesion.
# At 7 days post-lesion, rats were injected with 0.1 mg/kg apomorphine and the number of contralateral rotations/hour was recorded and calculated using a computerised Rotameter (St Diego Instruments). Experimenter was blinded from the treatment groups.
# Cyclic(tri(prolylglycyl)) was dissolved in saline solution. Four different doses of Cyclic(tri(prolylglycyl)) (0, 0.1, 0.5, 1 mg/kg, NeuroBiomed) were administered intraperitoneally 2 hours post lesion.
# Cyclic Glycyl-2-Methyl Proline (cGMeP) was dissolved in saline solution. Four different doses of cGMeP (0, 0.1, 0.5, 1 mg/kg, NeuroBiomed) were administered intraperitoneally 2 hours post lesion.
Compound,"patients with one or more AEs ([1]; 6-week treatment period, venlafaxine group) [%]","change from baseline in MADRS total score, Mean ± SD ([1]; LOCF, ANCOVA)","MADRS total score, Difference to Placebo ([1]; MMRM)","change from baseline in MADRS total score, Mean ± SD ([1]; MMRM)","MADRS total score, Difference to Placebo ([1]; MMRM, listed as venlafaxine)","MADRS total score, Difference to Placebo ([1]; OC, ANCOVA)","change from baseline in MADRS total score, Mean ± SD ([1]; OC, ANCOVA)",patients withdrawn due to AEs ([1]; venlafaxine group),"AEs reported by a majority of patients ([1]; venlafaxine group, 6 week)","improvement, recovery from glutamate induced neurotoxicity ([2]; 1-100 nM given 6 hours after the glutamate treatment, compared to vehicle)","reduction of glutamate induced neuronal death ([2]; administered simultaneously with glutamate, 1-100 nM, glutamate alone 85% loss of neurons) [%]",number of contralateral rotations/hour [3] [rotations/hour]
"COc1ccc(C(CN(C)C)C2(O)CCCCC2)cc1 (stereo not drawn) [Venlafaxine, reference compound]",75,−21.9 ± 1.0,−8.1 ± 1.3,−23.5 ± 0.9,5.6±1.3,−5.6 ± 1.3,−22.2 ± 0.9,2 (25%) patients (%),"nausea, severe headache loss of strength, blurred vision, chest pain, fast or irregular heartbeat and suicidal thoughts",,,
"CC12CCCN1C(=O)CNC2=O [cGMeP, (8aS)-Methyl-hexahydropyrrolo[1,2-a]pyrazine-1,4-dione]",,,,,,,,,,approximately 58%,63,134±69
